One may read the melting point as the temperature of the solid-liquid transition.

64 compounds from a melting point compilation (Tetko et al.; mined from patent text by program, amines drawn as free bases though some values may be those of a salt) can be followed below.

Turning to `COc1ccc(-c2ccc(Br)c3ccsc23)cc1`, the melting point lay in the range of 103 to 104 °C.
In the case of `Cc1cccc(NCC(C)Br)c1C` (centres undefined) it was 55 to 58 °C.
In the case of `OC(Cc1ccc(Cl)cc1)Cn1cncn1` (centres undefined) it was 104 to 106 °C; in that of `O=c1c(Cl)c(OCc2ccc(Cl)cc2)cnn1-c1ccc(F)cc1F`, 167 °C.
In the case of `COc1ccc(C(=O)CC(=O)C(C)(C)C)cc1OC` it was 52.3 to 53.3 °C.
Compound `CCOC(=O)N=C(NC(=O)Nc1ccc(C)cc1)SCC` gave a melting point of 110 to 112 °C.
In the case of `O=C(O)Cn1cc(Cc2nc3c(F)c(F)cc(F)c3s2)c2ccccc21` it was 177 to 178 °C; in that of `COc1cc(C(N)=O)c([N+](=O)[O-])cc1OC`, 197 °C.
In the case of `O=c1[nH]nc2n1-c1ccccc1OC2` it was 198 °C; in that of `N#CCC(=O)N[C@H]1CC[C@H](CCN2CCN(c3nccc4c3CCO4)CC2)CC1`, 188 °C; in that of `N#Cc1ccc(CN2CCC(N3C(=O)Nc4ccccc4C3c3ccccc3)CC2)cc1` (centres undefined), 189 to 192 °C.
In the case of `CC1=C(c2ccncc2)SC(c2ccc(O)cc2)C(=O)N1` (centres undefined) it was 198 to 200 °C.
Consider `O=c1c2c(Cc3ccccc3)n[nH]c2c2cccnc2n1-c1cccc(OC(F)(F)F)c1`, for which the melting point lay in the range of 249 to 251 °C.
In the case of `CCOCc1nc2c(N)nc(C)c(C)c2n1CCN` it was 163 to 166 °C.
Regarding `COC(=O)C1CC=C(c2c(-c3ccccc3)[nH]c3ccccc23)CC1` (centres undefined), the melting point lay in the range of 175 to 177 °C.
In the case of `CC(C)CCN1C(=O)C(NC(=O)Oc2cccc(N(C)C)c2)C(=O)N(c2ccccc2F)c2ccccc21` (centres undefined) it was 193 to 194 °C; in that of `COC(=O)CCCc1cc2nc(Cl)ccc2n1S(=O)(=O)c1ccc(N(C)C)cc1`, 188 °C.
On to `CNC(=S)Nc1cc(Cl)ccc1C`, for which the melting point fell in the range of 139 to 140 °C.
In the case of `CN1CCCC1=NCCSc1c[nH]c2ccccc12` it was 144 to 146 °C.
In the case of `COc1ccc(N2C(=O)C3=C(SCCS3)C2O)cc1` (centres undefined) it was 153 to 154 °C; in that of `CS(=O)(=O)c1ccc(Oc2cc3nc(-c4ccccc4)oc3cc2[N+](=O)[O-])cc1`, 123 to 125 °C; in that of `Cc1cc(C)cc(S(=O)c2cccc(N)c2C#N)c1` (centres undefined), 190 to 191 °C.
In the case of `O=[N+]([O-])c1ccc(C(O)c2ccccn2)c(Cl)c1` (centres undefined) it was 124 to 127 °C; in that of `C#CCOC(=O)c1ccc(O)c(Cl)c1`, 144 to 145 °C; in that of `O=c1[nH]nc(Cl)cc1Nc1ccc(-c2ccncc2)nn1`, 263 to 265 °C.
`COc1ccc2c(Cl)cc(-n3cccn3)nc2c1`: the melting point was found to be 80 °C.
Turning to `CCCCn1c(O)c(N=Nc2ccc(S(=O)(=O)N(CC(C)O)CC(C)O)cc2)c(C)c(C#N)c1=O` (centres undefined), the melting point is 189 to 190 °C.
In the case of `Nc1ccc(NC(=O)CN2CCCCC2)cc1` it was 106 to 107 °C; in that of `CC(C)(C)Sc1c(CC(C)(C)C(=O)O)n(Cc2ccc(Cl)cc2)c2ccc(OCc3cnc4ccccc4n3)cc12`, 216 to 219 °C; in that of `CC(C)(C)OC(=O)NN(C(=O)c1ccccc1)C(C)(C)C`, 167 to 170 °C.
In the case of `COc1ccc(COC(=O)CC(=O)Oc2ccc(-c3cn4c(n3)sc3ccccc34)cc2)cc1` it was 117 to 119 °C; in that of `COc1cc(NC(C)=O)c(Cl)cc1C(=O)N=[N+]=[N-]`, 135 to 140 °C.
In the case of `COC(=O)c1ccc(C(=NO)c2ccc(C(=O)OC)cc2)cc1` it was 177 to 178 °C; in that of `CCOc1cc2cc(OC)c(OC)cc2c(Cc2ccc(OC)c(OC)c2)n1`, 110 to 112 °C.
With `O=C1C2CC3CC2C(C(=O)O)(C3)N1Cc1ccccc1` (centres undefined), the melting point was 191 to 194 °C.
On to `CC(O)CN(Oc1ccccc1C1CCCCC1)C1CCCC(C2CNC(=O)N2)C1` (centres undefined), for which the melting point fell in the range of 117 to 120 °C.
In the case of `CN(C)C1CCN(c2nc(N3CCOCC3)c3ncnc(N(CCC#N)Cc4ccccc4)c3n2)CC1` it was 45 to 47 °C; in that of `COC(C)Cc1ccc(OCCNc2ncnc3ccccc23)c(C)c1` (centres undefined), 95 to 97 °C; in that of `NC(=S)C1CCCc2c1ncc1c2CCCC1` (centres undefined), 162 °C.
In the case of `CCC(O)(CC)CC(=NO)C1(c2ccc(Cl)cc2)CCC1` it was 113 to 115 °C.
In the case of `CC1(C)OC(c2ccc(S(C)(=O)=O)cc2)=C(c2ccc(OC(F)(F)F)cc2)C1=O` it was 118 to 120 °C; in that of `C=CCC(CC=C)(C(=O)O)S(=O)(=O)c1ccc(OC)cc1`, 114 to 116 °C; in that of `CN1C(=O)[C@H](NC(=O)C(c2ccccc2)c2ccccc2)N=C(c2ccccc2)c2ccccc21`, 200 to 201 °C.
Take `Cc1c(-c2ccccc2)nn2c1-c1ccccc1CC2`: the melting point was in the range of 122 to 124 °C.
In the case of `N#Cc1cccc(C2=Nc3ccc(C4CC4)cc3NC(=O)C2)c1` it was 204 to 209 °C; in that of `CN1CC(=O)N(c2cccnc2)C1=S`, 149 to 151 °C.
In the case of `Cc1csc2ncc(C(O)CC(C)c3ccccc3)n12` (centres undefined) it was 135 to 136 °C; in that of `COc1ccc(C=CC(=O)N2CCc3c([nH]c4ccccc34)C2c2ccc3c(c2)OCO3)cc1OC` (centres undefined), 233 °C; in that of `CS(=O)(=O)Nc1cc(O)c2c(c1)C(=O)c1cccc(O)c1C2=O`, > 300 °C.
As to `Cn1nc(C(O)c2ccccc2)nc1NCC(O)COc1cccc(CN2CCCCC2)c1` (centres undefined), the melting point lay in the range of 154 to 157 °C.
In the case of `COC(=O)C1=C(CCc2ccccc2)NC(CC(=O)NCCO)=C(C(=O)OC)C1c1c(Cl)cccc1Cl` (centres undefined) it was 192 to 194 °C; in that of `COc1ccccc1C(C)C(Sc1ccc(C(=O)O)cc1)n1ccnc1` (centres undefined), 118 to 124 °C; in that of `Cc1cc(-c2ccccc2)nc(N2CCN(c3ccc(O)cc3)CC2)c1C#N`, 207 °C.
`CC(C)(C)OC(=O)CN1C(=O)[C@@H](N)CSc2ccccc21` gave a melting point of 86 to 89 °C.
In the case of `CN1Cc2ccccc2C(=O)c2cc(CC(=O)O)cc(Cl)c21` it was 168 to 170 °C; in that of `CCc1nc(NC(C)=O)nc(NC(C)c2cccs2)n1` (centres undefined), 153 °C.
In the case of `CCOC(=O)c1c(C(Cl)Cl)nc2c(C(F)(F)F)cccc2c1O` it was 88 °C; in that of `CSC(=C[N+](=O)[O-])S(C)=O` (centres undefined), 137 to 143 °C.
In the case of `CCOC(=O)c1c(C)nc(C)n1Cc1ccc2oc(-c3ccccc3-c3nnn(C(c4ccccc4)(c4ccccc4)c4ccccc4)n3)c(Br)c2c1` it was 98 to 100 °C; in that of `CC1(COc2ccc(N3CCN(c4ccc(C(F)(F)F)cc4)CC3)cc2)Cn2cc([N+](=O)[O-])nc2O1` (centres undefined), 231 to 233 °C; in that of `CC(C)n1c(=O)n(C)c(=O)c2cn(C3Cc4ccccc4C3)cc21`, 158 to 160 °C.
In the case of `Cc1cc(C(=O)Nc2c(C)cccc2O)c(Br)s1`, the melting point lay in the range of 164 to 167 °C.
In the case of `CCN1CCN(C(C(=O)O)c2ccc(Nc3nc(-c4cccc(NC(=O)c5cc6c(s5)CCCCC6)c4C)cn(C)c3=O)cc2)CC1` (centres undefined) it was 168 to 170 °C; in that of `CC(C)(C)Nc1cc(Cl)nc(Cl)n1`, 192 to 193 °C.
